Results on three compounds are retold here after patent publication US20100015050A1, “PEG AND TARGETING LIGANDS ON NANOPARTICLE SURFACE” (WAYNE STATE UNIVERSITY, priority 2006, published 2010).

Data set [1] relates to MCF-7 cells. The data set can be described thus: MTS cytotoxicity of paclitaxel treatments in drug-sensitive cells. It counts as cell-based. Particulars: paclitaxel 100 nM in solution or equivalent in nanoparticles; compared to untreated cells.
Description: (§1) Drug sensitive (MCF-7) and drug-resistant (NCl/ADR-RES) cells were plated in 96-well plates at a density of 5000 cells/well/0.1 mL. Cells were then treated with paclitaxel (Pac) in solution (100 nM) or equivalent in nanoparticles (NP). […] Untreated cells and cells treated with empty nanoparticles were used as controls. Cytotoxicity was followed using a standard MTS assay (see Methods). […] Data as mean±SD, n=6 wells. * P<0.05.
The inventors initially investigated the efficacy of paclitaxel encapsulated in nanoparticles in drug-sensitive MCF-7 cells.
For data set [2], the system named is NCl/ADR-RES cells. The data set can be described thus: MTS cytotoxicity in drug-resistant, P-gp overexpressing cells. The class given is cell-based. Particulars: paclitaxel 100 nM in solution or in nanoparticles, no verapamil.
Description: as §1
NCl/ADR-RES cells were plated in 96-well plates at a density of 5000 cells/well/0.1 mL. Cells were then treated with paclitaxel (Pac, 100 nM) in nanoparticles (NP). […] Untreated cells were used as controls. Cytotoxicity was followed as a function of time using a standard MTS assay. The medium was changed on day 2 and every other day thereafter, and no further dose of drug was added.
Drug-resistant (NCl/ADR-RES) cells were plated in 96-well plates at a density of 5000 cells/well/0.1 mL. Cells were then treated with dual-agent nanoparticles releasing 0.3 ng/day/8 μg siRNA and 7 ng/day/8 μg paclitaxel. Cells treated with non-targeted (scrambled) siRNA and untreated cells were used as controls. Cytotoxicity was followed using a standard MTS assay. The medium was changed on day 2 and every other day thereafter, and no further dose of drug was added. Data as mean±SD, n=6 wells. * P<0.05 compared to controls. […]
Data set [3] concerns MCF-7 xenografts. Nature of the data set: tumor growth and survival after single-dose paclitaxel treatment. The class given is in vivo. Particulars: 400 μg paclitaxel/animal, nude mice.
Excerpt: Effect of a single-dose paclitaxel treatment on tumor growth was investigated in nude mice bearing MCF-7 xenografts.
Data set [4] concerns NCl/ADR-RES cells. Nature of the data set: nanoparticle uptake/retention and paclitaxel accumulation in cells (HPLC). It counts as cell-based. As to conditions: inhibition of P-gp by verapamil.
Description: NCl/ADR-RES cells were plated in 24-well plates at a density of 50,000 cells/well/1 mL. […] The medium was changed on day 2 and every other day thereafter, and no further dose of drug was added. Cells were harvested at different time intervals, and lysed using cell culture lysis reagent (Promega).
In order to verify that differences in drug accumulation are not due to differences in nanoparticle uptake/retention in cells, the inventors labeled nanoparticles with 6-coumarin, and followed the cell uptake and retention of nanoparticles and paclitaxel in NCl/ADR-RES cells.
For data set [5], the system named is vascular smooth muscle cells. Nature of the data set: MTS cytotoxicity of dexamethasone formulations. It counts as cell-based. As to conditions: nanoparticles 600 μg/mL or drug solution 25 μg/mL, single dose.
Description: Nanoparticle formulations with different drug release rates were formulated by emulsion solvent evaporation technique. […] Data represented as mean±SD, n=3. The two formulations were investigated for cytotoxicity in vascular smooth muscle cells. Cells were plated in 96-well plates at a density of 5000 cells/well/0.1 mL. A nanoparticle suspension prepared in regular serum-containing growth medium (600 μg/mL, 0.1 mL) was added to each well. Drug solution in growth medium (25 μg/mL) was also added to some of the wells. Untreated cells were used as controls. Cytotoxicity was determined using a standard MTS assay. The medium was changed on day 2 and every other day thereafter, and no further dose of drug was added. Data as mean±SD, n=6. […] Data represented as mean±SEM, n=3. Cells were plated at 100,000 cells/well/2 ml in 6-well plates. Drug encapsulated in nanoparticles (600 μg of nanoparticles/ml, 2 ml) or in solution (25 μg/ml, 2 ml) was added to each well. Medium was changed on day 2 and every other day thereafter, and no further dose of the drug was added.

Turning to `CC(=O)O[C@H]1C(=O)[C@@]2(C)[C@H]([C@H](OC(=O)c3ccccc3)[C@]3(O)C[C@H](OC(=O)[C@H](O)[C@@H](NC(=O)c4ccccc4)c4ccccc4)C(C)=C1C3(C)C)[C@]1(OC(C)=O)CO[C@@H]1C[C@@H]2O` [paclitaxel], the “inhibition of cell proliferation” value in data set [1] is given as “marginal but significant (P<0.05) inhibition of cell proliferation”. In addition, the “effect on the viability of cells” value in data set [2] is on record as “no significant effect on the viability of cells”. Also, in data set [3], the “effect on tumor growth” value is reported as “only marginally effective”.
Turning to `COc1ccc(CCN(C)CCCC(C#N)(c2ccc(OC)c(OC)c2)C(C)C)cc1OC` (stereo not drawn) [verapamil], in data set [4], the “effect on uptake or retention of nanoparticles” value was “did not significantly increase the uptake or retention of nanoparticles”.
`C[C@@H]1C[C@H]2[C@@H]3CCC4=CC(=O)C=C[C@]4(C)[C@@]3(F)[C@@H](O)C[C@]2(C)[C@@]1(O)C(=O)CO` [dexamethasone]: in data set [5], the “cytotoxicity / inhibition of cell proliferation” value is “transient cytotoxicity” and the duration of cytotoxicity entry is “up to 5 days”.
